Data reported in ChEMBL document CHEMBL2062464, “Allosteric modulation of seven transmembrane spanning receptors: theory, practice, and opportunities for central nervous system drug discovery” (J Med Chem, 2012).

How the values were obtained:
[1] = molecular target: T1, Muscarinic acetylcholine receptor M1 (Homo sapiens) (UniProt P11229); experiment: Positive allosteric modulation activity at muscarinic M1 receptor relative to acetylcholine
T1 sequence (whole entry): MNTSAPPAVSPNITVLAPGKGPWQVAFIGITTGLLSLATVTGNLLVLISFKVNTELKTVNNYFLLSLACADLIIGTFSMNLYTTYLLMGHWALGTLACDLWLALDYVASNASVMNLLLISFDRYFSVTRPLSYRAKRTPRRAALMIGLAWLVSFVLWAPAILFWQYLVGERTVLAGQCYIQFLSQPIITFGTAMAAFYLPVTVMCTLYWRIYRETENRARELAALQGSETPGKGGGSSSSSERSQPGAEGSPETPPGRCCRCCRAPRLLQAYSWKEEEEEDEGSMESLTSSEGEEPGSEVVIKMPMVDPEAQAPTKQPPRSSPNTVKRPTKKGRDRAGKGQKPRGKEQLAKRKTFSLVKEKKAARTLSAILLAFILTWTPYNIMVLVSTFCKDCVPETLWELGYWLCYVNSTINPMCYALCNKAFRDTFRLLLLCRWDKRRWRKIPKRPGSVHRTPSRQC

[2] = molecular target: Muscarinic acetylcholine receptor M3 (Homo sapiens) (UniProt P20309); experiment: Positive allosteric modulation activity at muscarinic M3 receptor relative to acetylcholine
[3] = molecular target: T2, Muscarinic acetylcholine receptor M5 (Homo sapiens) (UniProt P08912); experiment: Positive allosteric modulation activity at muscarinic M5 receptor relative to acetylcholine
T2 sequence (whole entry): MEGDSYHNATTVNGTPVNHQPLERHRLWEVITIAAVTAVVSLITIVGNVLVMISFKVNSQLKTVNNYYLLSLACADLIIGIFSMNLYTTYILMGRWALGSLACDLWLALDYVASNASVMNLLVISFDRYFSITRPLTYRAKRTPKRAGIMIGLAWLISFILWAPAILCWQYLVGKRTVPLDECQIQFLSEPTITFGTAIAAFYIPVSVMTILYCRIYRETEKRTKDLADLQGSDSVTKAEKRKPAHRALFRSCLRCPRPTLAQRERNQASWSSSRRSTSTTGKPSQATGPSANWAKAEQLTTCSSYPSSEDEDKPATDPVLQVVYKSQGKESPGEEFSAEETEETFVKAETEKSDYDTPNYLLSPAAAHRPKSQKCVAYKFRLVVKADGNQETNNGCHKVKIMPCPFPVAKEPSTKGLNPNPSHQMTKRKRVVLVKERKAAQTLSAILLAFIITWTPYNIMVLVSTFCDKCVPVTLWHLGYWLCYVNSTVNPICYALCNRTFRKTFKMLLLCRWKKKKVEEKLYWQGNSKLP

[4] = molecular target: T3, Metabotropic glutamate receptor 5 (Homo sapiens, UniProt P41594); experiment: Negative allosteric modulation activity at mGlu5 receptor
Target sequence in this assay (P41594 whole entry): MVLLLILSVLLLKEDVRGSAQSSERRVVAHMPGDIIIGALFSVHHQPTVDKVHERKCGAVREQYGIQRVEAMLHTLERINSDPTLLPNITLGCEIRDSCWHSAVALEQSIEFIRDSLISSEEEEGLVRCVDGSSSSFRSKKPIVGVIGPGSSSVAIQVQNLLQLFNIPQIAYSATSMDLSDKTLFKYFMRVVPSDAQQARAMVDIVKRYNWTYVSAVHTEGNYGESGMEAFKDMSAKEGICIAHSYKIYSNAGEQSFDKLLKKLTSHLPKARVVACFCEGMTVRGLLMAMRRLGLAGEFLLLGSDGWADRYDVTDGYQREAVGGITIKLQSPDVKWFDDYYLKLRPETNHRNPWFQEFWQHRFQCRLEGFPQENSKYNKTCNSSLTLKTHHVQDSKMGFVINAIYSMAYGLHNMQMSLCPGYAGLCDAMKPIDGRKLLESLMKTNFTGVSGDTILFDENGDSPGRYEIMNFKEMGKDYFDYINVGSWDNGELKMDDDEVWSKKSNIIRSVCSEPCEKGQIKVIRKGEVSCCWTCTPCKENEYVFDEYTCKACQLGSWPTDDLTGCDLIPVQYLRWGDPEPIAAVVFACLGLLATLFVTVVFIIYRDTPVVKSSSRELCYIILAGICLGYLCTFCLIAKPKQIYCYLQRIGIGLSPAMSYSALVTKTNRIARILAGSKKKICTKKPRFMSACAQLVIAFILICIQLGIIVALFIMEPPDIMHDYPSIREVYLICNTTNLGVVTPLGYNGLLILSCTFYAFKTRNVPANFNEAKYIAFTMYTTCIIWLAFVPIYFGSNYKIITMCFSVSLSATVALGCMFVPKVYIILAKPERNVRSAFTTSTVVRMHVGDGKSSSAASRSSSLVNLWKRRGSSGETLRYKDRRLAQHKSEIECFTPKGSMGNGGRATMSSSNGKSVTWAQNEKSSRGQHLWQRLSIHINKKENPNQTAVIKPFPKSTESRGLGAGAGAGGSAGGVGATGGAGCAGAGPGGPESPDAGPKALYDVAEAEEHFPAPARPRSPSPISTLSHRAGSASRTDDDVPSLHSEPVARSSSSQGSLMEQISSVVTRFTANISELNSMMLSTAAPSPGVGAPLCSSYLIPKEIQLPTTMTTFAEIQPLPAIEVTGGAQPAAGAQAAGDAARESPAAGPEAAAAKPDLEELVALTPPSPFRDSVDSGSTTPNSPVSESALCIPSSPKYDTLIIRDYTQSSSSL

[5] = molecular target: T4, Muscarinic acetylcholine receptor M1 (Homo sapiens, UniProt P11229); experiment: Positive allosteric modulation activity at muscarinic M1 receptor
T4 sequence (P11229 whole entry): T1 sequence (whole entry)

[6] = molecular target: T5, Adenosine receptor A1 (Homo sapiens) (UniProt P30542); experiment: Allosteric modulation at adenosine A1 receptor assessed as receptor mediated ERK1/2 phosphorylation
T5 sequence (whole entry): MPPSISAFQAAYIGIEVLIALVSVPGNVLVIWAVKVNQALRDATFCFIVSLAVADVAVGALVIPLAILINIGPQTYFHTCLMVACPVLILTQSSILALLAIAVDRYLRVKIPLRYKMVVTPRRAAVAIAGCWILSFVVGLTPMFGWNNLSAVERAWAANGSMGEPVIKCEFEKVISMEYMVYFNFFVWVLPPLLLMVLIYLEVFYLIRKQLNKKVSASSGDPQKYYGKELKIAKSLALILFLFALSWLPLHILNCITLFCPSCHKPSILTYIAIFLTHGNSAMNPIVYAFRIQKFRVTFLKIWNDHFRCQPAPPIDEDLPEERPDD

[7] = molecular target: T3, Metabotropic glutamate receptor 5; experiment: Positive allosteric modulation activity at mGlu5 receptor
Target sequence in this assay (P41594 whole entry): as the sequence (P41594 whole entry) above

[8] = molecular target: T3, Metabotropic glutamate receptor 5; experiment: Positive allosteric modulation activity at mGlu5 receptor relative to glutamate
Target sequence in this assay (P41594 21-1212 limits assumed): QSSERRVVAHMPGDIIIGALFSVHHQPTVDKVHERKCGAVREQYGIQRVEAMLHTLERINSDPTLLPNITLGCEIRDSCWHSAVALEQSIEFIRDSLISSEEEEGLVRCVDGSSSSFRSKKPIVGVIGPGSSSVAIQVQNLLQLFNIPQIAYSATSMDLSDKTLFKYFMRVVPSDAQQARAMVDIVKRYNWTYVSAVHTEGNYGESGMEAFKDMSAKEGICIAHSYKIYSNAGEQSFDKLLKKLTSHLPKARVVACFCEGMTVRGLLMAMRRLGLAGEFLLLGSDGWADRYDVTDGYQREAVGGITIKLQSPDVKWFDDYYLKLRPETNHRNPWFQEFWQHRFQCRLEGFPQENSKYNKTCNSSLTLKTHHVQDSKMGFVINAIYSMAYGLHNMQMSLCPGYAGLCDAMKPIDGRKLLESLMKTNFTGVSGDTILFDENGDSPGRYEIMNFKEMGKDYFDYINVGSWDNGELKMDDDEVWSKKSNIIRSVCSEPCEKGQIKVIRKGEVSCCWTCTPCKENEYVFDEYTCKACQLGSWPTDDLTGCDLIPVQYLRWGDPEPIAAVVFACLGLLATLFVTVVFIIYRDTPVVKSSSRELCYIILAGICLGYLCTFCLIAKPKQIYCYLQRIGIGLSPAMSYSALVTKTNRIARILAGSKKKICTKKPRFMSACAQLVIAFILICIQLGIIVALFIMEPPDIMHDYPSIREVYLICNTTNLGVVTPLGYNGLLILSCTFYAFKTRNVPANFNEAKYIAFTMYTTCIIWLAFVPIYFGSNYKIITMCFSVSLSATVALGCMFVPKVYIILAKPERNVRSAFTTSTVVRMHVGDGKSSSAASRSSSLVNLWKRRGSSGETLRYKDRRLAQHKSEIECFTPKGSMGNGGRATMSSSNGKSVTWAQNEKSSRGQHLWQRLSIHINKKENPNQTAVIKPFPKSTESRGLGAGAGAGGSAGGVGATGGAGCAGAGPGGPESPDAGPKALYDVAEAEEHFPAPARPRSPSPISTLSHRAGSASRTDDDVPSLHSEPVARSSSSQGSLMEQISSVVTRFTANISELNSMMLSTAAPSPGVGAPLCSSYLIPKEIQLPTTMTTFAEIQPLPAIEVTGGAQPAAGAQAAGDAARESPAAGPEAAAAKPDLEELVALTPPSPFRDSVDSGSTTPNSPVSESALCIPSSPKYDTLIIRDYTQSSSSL

[9] = molecular target: Metabotropic glutamate receptor 6 (Homo sapiens, UniProt O15303); experiment: Positive allosteric modulation activity at mGlu6 receptor
[10] = molecular target: Metabotropic glutamate receptor 7 (Homo sapiens, UniProt Q14831); experiment: Positive allosteric modulation activity at mGlu7 receptor
[11] = molecular target: Metabotropic glutamate receptor 8 (Homo sapiens, UniProt O00222); experiment: Positive allosteric modulation activity at mGlu8 receptor
[12] = molecular target: Metabotropic glutamate receptor 4 (Homo sapiens) (UniProt Q14833); experiment: Positive allosteric modulation activity at mGlu4 receptor relative to glutamate
[13] = molecular target: Metabotropic glutamate receptor 1 (Homo sapiens, UniProt Q13255); experiment: Positive allosteric modulation activity at mGlu1 receptor
[14] = molecular target: Metabotropic glutamate receptor 2 (Homo sapiens, UniProt Q14416); experiment: Positive allosteric modulation activity at mGlu2 receptor
[15] = molecular target: Metabotropic glutamate receptor 3 (Homo sapiens, UniProt Q14832); experiment: Positive allosteric modulation activity at mGlu3 receptor

Metabotropic glutamate receptor 6, sequence (O15303 whole entry): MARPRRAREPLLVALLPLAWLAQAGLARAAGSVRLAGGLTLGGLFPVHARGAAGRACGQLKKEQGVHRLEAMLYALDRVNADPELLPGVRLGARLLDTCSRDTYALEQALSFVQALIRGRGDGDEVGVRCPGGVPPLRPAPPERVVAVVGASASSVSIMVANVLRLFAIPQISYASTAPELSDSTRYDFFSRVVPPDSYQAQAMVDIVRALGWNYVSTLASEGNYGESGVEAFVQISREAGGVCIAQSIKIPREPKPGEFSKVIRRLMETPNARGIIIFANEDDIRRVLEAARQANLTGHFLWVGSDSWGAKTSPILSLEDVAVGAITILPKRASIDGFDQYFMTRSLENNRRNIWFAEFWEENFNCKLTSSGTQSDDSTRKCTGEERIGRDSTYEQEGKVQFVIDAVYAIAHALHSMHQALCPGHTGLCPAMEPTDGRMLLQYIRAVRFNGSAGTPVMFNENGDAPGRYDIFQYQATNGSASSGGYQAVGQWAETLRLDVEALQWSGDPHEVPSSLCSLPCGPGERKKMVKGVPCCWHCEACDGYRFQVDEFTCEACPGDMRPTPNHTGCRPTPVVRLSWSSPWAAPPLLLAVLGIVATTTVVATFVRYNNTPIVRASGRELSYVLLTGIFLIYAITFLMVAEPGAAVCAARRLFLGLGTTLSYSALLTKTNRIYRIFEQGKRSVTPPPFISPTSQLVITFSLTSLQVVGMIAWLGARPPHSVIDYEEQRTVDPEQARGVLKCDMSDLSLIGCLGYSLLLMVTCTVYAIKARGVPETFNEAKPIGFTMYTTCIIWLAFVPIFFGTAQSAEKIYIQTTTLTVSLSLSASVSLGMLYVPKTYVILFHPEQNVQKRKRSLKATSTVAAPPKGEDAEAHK
Metabotropic glutamate receptor 2, sequence (Q14416 whole entry): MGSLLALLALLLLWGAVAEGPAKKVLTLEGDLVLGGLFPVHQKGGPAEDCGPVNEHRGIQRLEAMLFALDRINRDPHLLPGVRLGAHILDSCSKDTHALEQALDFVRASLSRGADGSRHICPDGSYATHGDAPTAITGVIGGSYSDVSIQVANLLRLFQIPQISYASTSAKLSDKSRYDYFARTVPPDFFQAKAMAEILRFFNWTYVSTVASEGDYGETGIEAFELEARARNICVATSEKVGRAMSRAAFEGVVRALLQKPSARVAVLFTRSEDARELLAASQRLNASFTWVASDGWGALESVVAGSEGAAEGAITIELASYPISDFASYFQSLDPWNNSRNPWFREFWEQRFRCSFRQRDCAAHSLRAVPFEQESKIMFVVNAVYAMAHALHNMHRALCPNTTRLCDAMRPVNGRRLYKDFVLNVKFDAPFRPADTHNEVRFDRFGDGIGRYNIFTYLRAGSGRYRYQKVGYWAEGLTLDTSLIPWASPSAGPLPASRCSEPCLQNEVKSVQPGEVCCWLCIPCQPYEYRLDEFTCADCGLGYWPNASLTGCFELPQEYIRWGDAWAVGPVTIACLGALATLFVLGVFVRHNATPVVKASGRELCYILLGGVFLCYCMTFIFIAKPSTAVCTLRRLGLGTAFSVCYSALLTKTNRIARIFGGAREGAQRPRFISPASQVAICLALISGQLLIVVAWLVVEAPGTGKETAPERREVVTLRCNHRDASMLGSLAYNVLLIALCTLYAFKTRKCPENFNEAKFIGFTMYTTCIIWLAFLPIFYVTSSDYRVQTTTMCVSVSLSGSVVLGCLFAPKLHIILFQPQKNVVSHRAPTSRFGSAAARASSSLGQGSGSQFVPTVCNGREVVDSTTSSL
Metabotropic glutamate receptor 4 (Homo sapiens), sequence (Q14833 whole entry): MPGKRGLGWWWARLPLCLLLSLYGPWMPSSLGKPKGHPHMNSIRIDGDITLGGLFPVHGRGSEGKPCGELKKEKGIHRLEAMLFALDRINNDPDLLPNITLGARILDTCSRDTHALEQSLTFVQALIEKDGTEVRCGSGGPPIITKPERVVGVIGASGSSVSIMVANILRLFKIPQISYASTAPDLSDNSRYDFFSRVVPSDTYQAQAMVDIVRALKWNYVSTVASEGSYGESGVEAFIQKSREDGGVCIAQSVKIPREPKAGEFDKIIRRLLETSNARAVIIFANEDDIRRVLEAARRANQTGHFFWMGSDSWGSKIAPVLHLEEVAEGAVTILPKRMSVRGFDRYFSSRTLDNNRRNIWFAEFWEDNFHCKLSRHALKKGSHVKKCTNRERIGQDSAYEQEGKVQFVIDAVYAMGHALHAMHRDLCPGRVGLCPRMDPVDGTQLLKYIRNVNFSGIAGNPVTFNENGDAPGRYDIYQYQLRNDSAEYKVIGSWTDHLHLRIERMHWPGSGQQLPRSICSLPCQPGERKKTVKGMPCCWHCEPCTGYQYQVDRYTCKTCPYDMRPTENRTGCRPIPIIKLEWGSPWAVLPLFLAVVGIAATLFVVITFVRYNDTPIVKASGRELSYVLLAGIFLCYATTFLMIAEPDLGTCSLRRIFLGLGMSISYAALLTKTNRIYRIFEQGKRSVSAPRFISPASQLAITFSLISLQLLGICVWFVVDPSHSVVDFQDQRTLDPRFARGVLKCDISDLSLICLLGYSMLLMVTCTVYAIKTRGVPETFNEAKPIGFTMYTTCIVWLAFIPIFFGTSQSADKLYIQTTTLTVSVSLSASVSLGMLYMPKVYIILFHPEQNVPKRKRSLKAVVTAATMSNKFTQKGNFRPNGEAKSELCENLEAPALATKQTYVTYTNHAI

`O=C1C(=O)N(Cc2ccc(Br)cc2)c2ccccc21` was tested, and the Emax [1] was 82%, the Emax [2] was 66% and the Emax [3] was 74%.
Work on `C(#Cc1cncnc1)c1ccccc1` yielded an IC50 [4] of 486 nM.
Molecule `O=C(O)c1cn(Cc2ccc(-c3ccccc3)cc2)c2c(F)cccc2c1=O` has an EC50 [5] of 380 nM.
`Nc1sc(-c2cncnc2)cc1C(=O)c1ccccc1` was tested, and the pKb [6] was 5.82.
With `Nc1sc2c(c1C(=O)c1ccc(Cl)cc1)CC1C=C(C(F)(F)F)C=CC1C2` (stereo unspecified) the pKb [6] was 5.12.
Molecule `Nc1sc(-c2ccccc2)cc1C(=O)c1ccccc1` has a pKb [6] of 6.36.
`CCOC(=O)c1nn(-c2cccc(Cl)c2)c(=O)c2c(N)scc12` gave a pKb [6] of 8.3.
`COc1ccc(CN2C(=O)C(=O)c3cc(OC(F)(F)F)ccc32)cc1` showed an Emax [3] of 91%.
`Nc1scc(-c2cc(C(F)(F)F)cc(C(F)(F)F)c2)c1C(=O)c1ccc(Cl)cc1` was tested, and the pKb [6] was 5.46.
In the case of `Cc1ccc(C(=O)c2c(N)sc3c2CCCC3)cc1`, the pKb [6] is reported as 5.1.
For `CCOC(=O)c1c(N)sc2c1CCN(C(=O)OC(C)(C)C)CC2`, the pKb [6] was 6.07.
With `O=C1C(=O)N(Cc2ccc(Oc3ccccc3)cc2)c2ccc(OC(F)(F)F)cc21` the Emax [3] was 75%.
In the case of `Cc1cccc(C#Cc2cncnc2)c1`, the IC50 [4] is reported as 7.5 nM.
Work on `Cn1cc(-c2ccc(Cn3cc(C(=O)O)c(=O)c4c(F)cccc43)c(F)c2)cn1` yielded an EC50 [5] of 41 nM.
With `Nc1scc(-c2cccc(C(F)(F)F)c2)c1C(=O)c1ccccc1` the pKb [6] was 6.37.
Molecule `Nc1scc(-c2ccccc2F)c1C(=O)c1ccc(Cl)cc1` has a pKb [6] of 5.1.
In the case of `Nc1sc2c(c1C(=O)c1ccc(Cl)cc1)CCCC2`, the pKb [6] is reported as 5.49.
Molecule `Cc1ccc(C#Cc2cncnc2)cc1` has an EC50 [7] of 3300 nM and an Emax [8] of 99%.
`Nc1scc(-c2cccc(C(F)(F)F)c2)c1C(=O)c1ccc(Cl)cc1` showed a pKb [6] of 5.74.
Molecule `O=C(O)c1cn(Cc2ccc(-c3ccccc3)cc2)c2c(F)ccc(F)c2c1=O` has an EC50 [5] of 270 nM.
In the case of `Nc1scc(-c2cccc(F)c2)c1C(=O)c1ccc(Cl)cc1`, the pKb [6] is reported as 5.88.
Work on `Nc1sc2c(c1C(=O)c1ccc(Cl)cc1)CC1C=CC=CC1C2` (stereo unspecified) yielded a pKb [6] of 6.01.
With `Nc1sc2c(c1C(=O)c1ccc(Cl)cc1)CC1C=CC(C(F)(F)F)=CC1C2` (stereo unspecified) the pKb [6] was 5.11.
In the case of `O=C(Nc1ccccn1)[C@]12C[C@H]1/C(=N\O)c1ccccc1O2`, the EC50 [7] is reported as > 30000 nM, the EC50 [9] is reported as > 30000 nM and the EC50 [10] is reported as > 30000 nM. The EC50 [11] was > 30000 nM, the Emax [12] was 121% and the EC50 [13] was > 30000 nM. The EC50 [14] was > 30000 nM and the EC50 [15] was > 30000 nM.
`CNc1ncc(C#Cc2ccccc2)cn1` was tested, and the Emax [8] was 128%.
Molecule `Nc1scc(-c2cc(C(F)(F)F)cc(C(F)(F)F)c2)c1C(=O)c1ccccc1` has a pKb [6] of 5.22.
Molecule `Nc1sc(-c2cncnc2)c2c1C(=O)c1ccccc1-2` has a pKb [6] of 6.67.
`O=C(O)c1cn(Cc2ccc(-c3ccccc3)cc2)c2cccc(F)c2c1=O` was tested, and the EC50 [5] was 84 nM.
`Nc1sc2c(c1C(=O)c1ccccc1)CCCCCC2` showed a pKb [6] of 5.08.
In the case of `Cn1cc(-c2ccc(CN3C(=O)C(=O)c4ccccc43)c(F)c2)cn1`, the Emax [1] is reported as 65%.
Molecule `CC(C)(C)OC(=O)N1CCc2sc(N)c(C(=O)c3ccc(Cl)cc3)c2CC1` has a pKb [6] of 5.23.
